Laboratory results published in patent US5075307A, “Paraherquamide and dihydroparaherquamide as antihelminthic agents” (Merck & Co., Inc., priority 1987, dated 1991).

Legend:
Cooperia curticei = assay: Anthelmintic activity, single oral dose in experimentally infected sheep: residual worm burden vs untreated control; format: in vivo; conditions: 8 days after treatment
Procedure: (§1) Four "Parasite-free" sheep were exposed to infection with infective L3 of H. contortus, O. circumcincta, T. axei, T. colubriformis, C. curticei, C. oncophora, and Oe. columbianum. Twenty-four days after the last oral dose of infective larvae, when the infections were patent, three of the sheep were randomly assigned to treatment with either 6, 3 or 1 mg/kg body weight of paraherquamide as a single oral dose. The fourth sheep was maintained as an untreated control. All treatments were administered as solutions at a volume of 0.2 ml/kg P.O.: 6 mg/kg as a solution containing 30 mg/ml; 3 mg/kg as a solution containing 15 mg/ml; 1 mg/kg as a solution containing 5 mg/ml. The vehicle used was a mixture of dimethylsulfoxide: propylene glycol:miglyol (1.5:5:3.5).
(§2) Eight days following treatment the treated and control sheep were sacrificed and their residual worm burdens were recovered and identified using standard procedures. The worm burdens of the treated sheep were compared with that of the untreated control and the evaluations are tabulated as Table 1.

Cooperia oncophora = assay: as above; format: in vivo; conditions: 8 days after treatment
Procedure: as §1, §2

Cooperia spp. = assay: as above; format: in vivo; conditions: 8 days after treatment
Procedure: as §1, §2

[1] = tested on: Haemonchus contortus (benzimidazole resistant isolate); assay: as above; format: in vivo; conditions: 8 days after treatment
Procedure: as §1, §2

[2] = tested on: Oesophagostomum columbianum; assay: as above; format: in vivo; conditions: 8 days after treatment, control worm burden 7
Procedure: as §1, §2

Ostertagia circumcincta = assay: as above; format: in vivo; conditions: 8 days after treatment; for Efficacy, Ostertagia circumcincta L4: L4 stage; for Efficacy, Ostertagia circumcincta, Adult: adult stage
Procedure: as §1, §2

Trichostrongylus axei = assay: as above; format: in vivo; conditions: 8 days after treatment
Procedure: as §1, §2

[3] = tested on: Trichostrongylus colubriformis (benzimidazole resistant isolate); assay: as above; format: in vivo; conditions: 8 days after treatment
Procedure: as §1, §2

[4] = tested on: H. contortus, O. circumcincta, T. axei, T. colubriformis, C. curticei, C. oncophora, and Oe. columbianum; assay: Fecal worm egg counts of treated infected sheep; format: in vivo; conditions: 3 treated sheep (6, 3 or 1 mg/kg P.O. single dose), four days following treatment, from 4,000-20,000 EPG
Procedure: as §1

[5] = tested on: Dermacentor albipictus larvae; assay: Tick larvae immersion test; conditions: same suspension of crude extract as Example 13, 2 ml whole broth equivalent, immersed 10 minutes
Procedure: The same suspension used in Example 13 was used at a concentration of 2 ml whole broth equivalent to screen for activity against tick larvae. For this test Dermacentor albipictus larvae were immersed in 2 ml whole broth equivalent Paraherquamide for 10 minutes. The liquid was then removed with vacuum retaining the ticks on drug-impregnated filter paper.

Solubility = format: physicochemical

For `CN1C(=O)C23CC4C1(CN2CCC3(C)O)CC1(C(=O)Nc2c1ccc1c2OC=CC(C)(C)O1)C4(C)C` (stereo not shown) [Paraherquamide], the “Efficacy, Cooperia curticei” value (Cooperia curticei; 1.0 mg/kg P.O. single dose) was 3 (≥91% effective), the “Efficacy, Cooperia curticei” value (Cooperia curticei; 3.0 mg/kg P.O. single dose) was 3 (≥91% effective) and the “Efficacy, Cooperia curticei” value (Cooperia curticei; 6.0 mg/kg P.O. single dose) was 3 (≥91% effective). For the same compound, the “Efficacy, Cooperia oncophora” value (Cooperia oncophora; 1.0 mg/kg P.O. single dose) was 3 (≥91% effective), the “Efficacy, Cooperia oncophora” value (Cooperia oncophora; 3.0 mg/kg P.O. single dose) was 3 (≥91% effective) and the “Efficacy, Cooperia oncophora” value (Cooperia oncophora; 6.0 mg/kg P.O. single dose) was 3 (≥91% effective). For the same compound, the “Efficacy, Cooperia spp.” value (Cooperia spp.; 1.0 mg/kg P.O. single dose) was 3 (≥91% effective), the “Efficacy, Cooperia spp.” value (Cooperia spp.; 3.0 mg/kg P.O. single dose) was 3 (≥91% effective) and the “Efficacy, Cooperia spp.” value (Cooperia spp.; 6.0 mg/kg P.O. single dose) was 3 (≥91% effective). For the same compound, the “Efficacy, Haemonchus contortus” value ([1]; 1.0 mg/kg P.O. single dose) was 3 (≥91% effective), the “Efficacy, Haemonchus contortus” value ([1]; 3.0 mg/kg P.O. single dose) was 3 (≥91% effective) and the “Efficacy, Haemonchus contortus” value ([1]; 6.0 mg/kg P.O. single dose) was 3 (≥91% effective). The “Efficacy, Oesophagostomum columbianum” value ([2]; 1.0 mg/kg P.O. single dose) was 0 (0-50% effective), the “Efficacy, Oesophagostomum columbianum” value ([2]; 3.0 mg/kg P.O. single dose) was 3 (≥91% effective) and the “Efficacy, Oesophagostomum columbianum” value ([2]; 6.0 mg/kg P.O. single dose) was 3 (≥91% effective). For the same compound, the “Efficacy, Ostertagia circumcincta L4” value (Ostertagia circumcincta; 1.0 mg/kg P.O. single dose) was 2 (76-90% effective), the “Efficacy, Ostertagia circumcincta L4” value (Ostertagia circumcincta; 3.0 mg/kg P.O. single dose) was 3 (≥91% effective) and the “Efficacy, Ostertagia circumcincta L4” value (Ostertagia circumcincta; 6.0 mg/kg P.O. single dose) was 3 (≥91% effective). For the same compound, the “Efficacy, Ostertagia circumcincta, Adult” value (Ostertagia circumcincta; 1.0 mg/kg P.O. single dose) was 3 (≥91% effective), the “Efficacy, Ostertagia circumcincta, Adult” value (Ostertagia circumcincta; 3.0 mg/kg P.O. single dose) was 3 (≥91% effective) and the “Efficacy, Ostertagia circumcincta, Adult” value (Ostertagia circumcincta; 6.0 mg/kg P.O. single dose) was 2 (76-90% effective). The “Efficacy, Trichostrongylus axei” value (Trichostrongylus axei; 1.0 mg/kg P.O. single dose) was 3 (≥91% effective), the “Efficacy, Trichostrongylus axei” value (Trichostrongylus axei; 3.0 mg/kg P.O. single dose) was 3 (≥91% effective) and the “Efficacy, Trichostrongylus axei” value (Trichostrongylus axei; 6.0 mg/kg P.O. single dose) was 3 (≥91% effective). For the same compound, the “Efficacy, Trichostrongylus colubriformis” value ([3]; 1.0 mg/kg P.O. single dose) was 3 (≥91% effective), the “Efficacy, Trichostrongylus colubriformis” value ([3]; 3.0 mg/kg P.O. single dose) was 3 (≥91% effective) and the “Efficacy, Trichostrongylus colubriformis” value ([3]; 6.0 mg/kg P.O. single dose) was 3 (≥91% effective). For the same compound, the “fecal worm egg counts” value [4] was “barely detectable or undetectable level”, the “activity against tick larvae” value [5] was “rapidly and completely active” and the “solubility in organic solvents” value (Solubility; organic solvents) was “soluble”. For the same compound, the solubility in water (Solubility; water) was “slight solubility”.
